In general, viability refers to a read-out of living cells in per cent, often relative to untreated cells.

Common to all, as to type: cell-based, human
For experiment [1], the system named is HepG2 (Hepatocellular Carcinoma). Put plainly: Cell viability analysis, hepatic cancer HepG2. As to conditions: Homo sapiens, HepG2, 72 h.
In experiment [2] the test system is PC3 (p53−) (Prostate Adenocarcinoma). Put plainly: Cell viability analysis, prostate cancer PC3. The following applies: Homo sapiens, 72 h.
In experiment [3] the test system is MCF7 (Mammary Gland, Adenocarcinoma). Description: Cell viability analysis, breast cancer MCF7. As to conditions: Homo sapiens, MCF7, 72 h.
In the next experiment the test system is cancer cell lines. Description: Cell viability analysis (WST-1) on cancer cell lines. As to conditions: drug 10 μM, 72 hours, WST-1; Table 3. (Tetrazolium dyes change colour on reduction, which living cells bring about.)
In experiment [4] the test system is TSGH-8301 (Urinary Bladder Carcinoma). Description: Cell viability analysis, bladder cancer TSGH-8301. As to conditions: Homo sapiens, 72 h.
The subject of experiment [5] is HI650 (Lung Adenocarcinoma). Description: Cell viability analysis, lung cancer HI650. As to conditions: Homo sapiens, NCI-H1650, 72 h.
Experiment [6] relates to MKN-45 (Gastric Adenocarcinoma). Description: Cell viability analysis, gastric cancer MKN-45. As to conditions: Homo sapiens, MKN-45, 72 h.
Experiment [7] relates to AGS (Gastric Adenocarcinoma). Put plainly: Cell viability analysis, gastric cancer AGS. The following applies: Homo sapiens, 72 h.
The test system of experiment [8] is A549 (Lung Adenocarcinoma). Description: Cell viability analysis, lung cancer A549. As to conditions: Homo sapiens, A549, 72 h.
Experiment [9] has as its system LoVo (Colorectal Adenocarcinoma). Put plainly: Cell viability analysis, colon cancer LoVo. As to conditions: Homo sapiens, LoVo, 72 h, read-out: cell viability (survival rate), LoVo, drug 10 μM, 72 hours, WST-1, OD450 nm.
The test system of experiment [10] is HL-60 (Acute Promyelocytic Leukemia). Description: Cell viability analysis, leukemia HL-60. As to conditions: Homo sapiens, HL-60, 72 h.
The test system of experiment [11] is A375 (Amelanotic Melanoma). Description: Cell viability analysis, skin cancer A375. The following applies: Homo sapiens, A-375, 72 h.
In experiment [12] the test system is HeLa (Cervix Adenocarcinoma). Description: Cell viability analysis, cervical cancer HeLa. As to conditions: Homo sapiens, HeLa, 72 h.
[13] abbreviates: read-out: cell viability (survival rate), HepG2, drug 10 μM, 72 hours, WST-1, OD450 nm.
The mark [14] stands for this setting: read-out: cell viability (survival rate), PC3, drug 10 μM, 72 hours, WST-1, OD450 nm.
The mark [15] stands for this setting: read-out: cell viability (survival rate), MCF7, drug 10 μM, 72 hours, WST-1, OD450 nm.
Setting [16] is: read-out: cell viability (survival rate), TSGH, drug 10 μM, 72 hours, WST-1, OD450 nm.
Where [17] appears, read: read-out: cell viability (survival rate), H1650, drug 10 μM, 72 hours, WST-1, OD450 nm.
Setting [18] is: read-out: cell viability (survival rate), MKN-45, drug 10 μM, 72 hours, WST-1, OD450 nm.
[19] abbreviates: read-out: cell viability (survival rate), AGS, drug 10 μM, 72 hours, WST-1, OD450 nm.
Setting [20] is: read-out: cell viability (survival rate), A549, drug 10 μM, 72 hours, WST-1, OD450 nm.
The mark [21] stands for this setting: read-out: cell viability (survival rate), HL-60, drug 10 μM, 72 hours, WST-1, OD450 nm.
Setting [22] is: read-out: cell viability (survival rate), A375, drug 10 μM, 72 hours, WST-1, OD450 nm.
Where [23] appears, read: read-out: cell viability (survival rate), HeLa, drug 10 μM, 72 hours, WST-1, OD450 nm.
Where [24] appears, read: drug 10 μM, 72 hours, WST-1, OD450 nm, read-out: cell viability (survival rate), HepG2.
Where [25] appears, read: drug 10 μM, 72 hours, WST-1, OD450 nm, read-out: cell viability (survival rate), PC3.
Where [26] appears, read: drug 10 μM, 72 hours, WST-1, OD450 nm, read-out: cell viability (survival rate), MCF7.
Setting [27] is: drug 10 μM, 72 hours, WST-1, OD450 nm, read-out: cell viability (survival rate), TSGH.
The mark [28] stands for this setting: drug 10 μM, 72 hours, WST-1, OD450 nm, read-out: cell viability (survival rate), H1650.
Where [29] appears, read: drug 10 μM, 72 hours, WST-1, OD450 nm, read-out: cell viability (survival rate), MKN-45.
[30] abbreviates: drug 10 μM, 72 hours, WST-1, OD450 nm, read-out: cell viability (survival rate), AGS.
Setting [31] is: drug 10 μM, 72 hours, WST-1, OD450 nm, read-out: cell viability (survival rate), A549.
[32] abbreviates: drug 10 μM, 72 hours, WST-1, OD450 nm, read-out: cell viability (survival rate), HL-60.
Where [33] appears, read: drug 10 μM, 72 hours, WST-1, OD450 nm, read-out: cell viability (survival rate), A375.
The mark [34] stands for this setting: drug 10 μM, 72 hours, WST-1, OD450 nm, read-out: cell viability (survival rate), HeLa.

Structures are written as SMILES. Counter-ions that a name gives are not always drawn. Like-named read-outs stand apart in the source and are kept apart here.

Take `Cc1cc(NS(=O)(=O)c2ccc(N)cc2)no1` [Sulfamethoxazole]: the viability at 10 µM in [1] (setting [13]) turned out to be 115%; in [2] (setting [14]), 44.9%; in [3] (setting [15]) it was 46.1%; in experiment [4] (setting [16]) it was 62.1%; in [5] (setting [17]), 85.8%; in experiment [6] (setting [18]), 60.7%. In addition, the viability at 10 µM stood at 67.7% in [7] (setting [19]); 43.9% in [8] (setting [20]); 71.7% in [9]; 99.4% in [10] (setting [21]); 44.3% in experiment [11] (setting [22]); 87.8% in [12] (setting [23]). Further, the “inhibition effect on different cancer cell lines” value in the experiment with cancer cell lines is on record as “significant inhibition effect”.
Regarding `CC(=O)N[C@H]1[C@H]([C@H](O)[C@H](O)CO)OC(C(=O)O)=C[C@@H]1N=C(N)N` [Zanamivir (Relenza), Zanamivir], the viability at 10 µM in experiment [1] (setting [24]) came out at 110%; in experiment [2] (setting [25]), 106%; in experiment [3] (setting [26]) it was 69.6%; in experiment [4] (setting [27]), 88.5%; in experiment [5] (setting [28]), 62.7%; in experiment [6] (setting [29]), 85.8%. Also, the viability at 10 µM in experiment [7] (setting [30]) stood at 75.1%; in [8] (setting [31]), 93%; in experiment [9] it was 77.3%; in experiment [10] (setting [32]), 146%; in experiment [11] (setting [33]), 51.5%; in experiment [12] (setting [34]) it was 71.8%. Further, the “inhibition effect on different cancer cell lines” value with cancer cell lines is “significant inhibition effect”.
As for `CO/N=C(\C(=O)N[C@@H]1C(=O)N2C(C(=O)OCOC(=O)C(C)(C)C)=C(/C=C\c3scnc3C)CS[C@H]12)c1csc(N)n1` [Cefditoren pivoxil], the viability at 10 µM in experiment [1] (setting [24]) was determined as 96.9%; in [2] (setting [25]) it was 83.9%; in experiment [3] (setting [26]) it was 38.4%; in experiment [4] (setting [27]), 94.8%; in experiment [5] (setting [28]), 80.7%; in [6] (setting [29]), 70.5%. Besides, the viability at 10 µM in experiment [7] (setting [30]) amounted to 86.5%; in experiment [8] (setting [31]) it was 45.7%; in [9], 83.5%; in experiment [10] (setting [32]) it was 110%; in experiment [11] (setting [33]), 69.1%; in experiment [12] (setting [34]) it was 58.7%. In addition, the “inhibition effect on different cancer cell lines” value with cancer cell lines is reported as “significant inhibition effect”.
`CCCCCCCCCC(=O)N[C@@H](Cc1c[nH]c2ccccc12)C(=O)N[C@H](CC(N)=O)C(=O)N[C@@H](CC(=O)O)C(=O)N[C@@H]1C(=O)NCC(=O)N[C@@H](CCCN)C(=O)N[C@@H](CC(=O)O)C(=O)N[C@H](C)C(=O)N[C@@H](CC(=O)O)C(=O)NCC(=O)N[C@H](CO)C(=O)N[C@@H]([C@H](C)CC(=O)O)C(=O)N[C@@H](CC(=O)c2ccccc2N)C(=O)O[C@@H]1C` [Daptomycin]: the viability at 10 µM in [1] (setting [13]) worked out at 95.9%; in experiment [2] (setting [14]), 79.7%; in [3] (setting [15]), 85.3%; in [4] (setting [16]) it was 56.8%; in [5] (setting [17]), 76.3%; in experiment [6] (setting [18]), 92.1%. Besides, the viability at 10 µM was determined as 63% in experiment [7] (setting [19]); 74% in experiment [8] (setting [20]); 90.9% in experiment [9]; 108% in experiment [10] (setting [21]); 81.2% in experiment [11] (setting [22]); 114% in experiment [12] (setting [23]). Further, the “inhibition effect on different cancer cell lines” value in the experiment on cancer cell lines is given as “significant inhibition effect”.
On to `CO/N=C(\C(=O)N[C@@H]1C(=O)N2C(C(=O)O)=C(CSC(=O)c3ccco3)CS[C@H]12)c1csc(N)n1` [Ceftiofur hydrochloride], for which the viability at 10 µM is 91.9% in experiment [1] (setting [13]); 73.1% in experiment [2] (setting [14]); 159% in [3] (setting [15]); 50.6% in experiment [4] (setting [16]); 44% in [5] (setting [17]); 85.5% in experiment [6] (setting [18]). Moreover, the viability at 10 µM in [7] (setting [19]) turned out to be 69.4%; in experiment [8] (setting [20]) it was 61.6%; in experiment [9], 85%; in experiment [10] (setting [21]), 92.2%; in experiment [11] (setting [22]) it was 92.8%; in experiment [12] (setting [23]), 92.2%. Besides, the “inhibition effect on different cancer cell lines” value in the experiment with cancer cell lines is listed as “significant inhibition effect”.
For the molecule `C[C@@H]1[C@H](O)[C@@H](C)/C=C/C=C/C=C/C=C/C=C/C=C/C=C/[C@H](O[C@@H]2O[C@H](C)[C@@H](O)[C@H](N)[C@@H]2O)C[C@@H]2O[C@](O)(C[C@@H](O)C[C@@H](O)[C@H](O)CC[C@@H](O)C[C@@H](O)CC(=O)O[C@H]1C)C[C@H](O)[C@H]2C(=O)O` [Amphotericin B (Abelcet), Amphotericin B], the viability at 10 µM in experiment [1] (setting [13]) is 90.3%; in experiment [2] (setting [14]), 66.9%; in experiment [3] (setting [15]) it was 38.9%; in experiment [4] (setting [16]) it was 56%; in experiment [5] (setting [17]), 61.2%; in experiment [6] (setting [18]) it was 44%. For the same molecule, the viability at 10 µM in experiment [7] (setting [19]) came out at 28.5%; in experiment [8] (setting [20]) it was 45%; in experiment [9], 66.5%; in [10] (setting [21]) it was 116%; in experiment [11] (setting [22]), 98.9%; in [12] (setting [23]), 84.5%. The “inhibition effect on different cancer cell lines” value with cancer cell lines is listed as “significant inhibition effect”.
With `CCn1cc(C(=O)O)c(=O)c2cc(F)c(N3CCNCC3)nc21` [Enoxacin (Penetrex), Enoxacin], the viability at 10 µM in experiment [1] (setting [24]) is 88.1%; in [2] (setting [25]), 112%; in experiment [3] (setting [26]), 44.5%; in experiment [4] (setting [27]), 90.4%; in experiment [5] (setting [28]), 92.3%; in experiment [6] (setting [29]), 54.3%. Moreover, the viability at 10 µM came to 111% in experiment [7] (setting [30]); 45.8% in [8] (setting [31]); 83.8% in [9]; 108% in experiment [10] (setting [32]); 66.9% in [11] (setting [33]); 68.5% in experiment [12] (setting [34]). In addition, the “inhibition effect on different cancer cell lines” value with cancer cell lines is given as “significant inhibition effect”.
Turning to `NC1CCN(c2c(F)cc3c(=O)c(C(=O)O)cn(C4CC4)c3c2Cl)C1` (centres unmarked) [Clinafloxacin (PD127391), Clinafloxacin], the viability at 10 µM in experiment [1] (setting [13]) was found to be 73.8%; in experiment [2] (setting [14]), 36.7%; in experiment [3] (setting [15]) it was 78.6%; in experiment [4] (setting [16]), 83.3%; in experiment [5] (setting [17]), 72.4%; in [6] (setting [18]), 91.3%. Also, the viability at 10 µM turned out to be 74.2% in [7] (setting [19]); 67.5% in experiment [8] (setting [20]); 92.7% in experiment [9]; 71.2% in experiment [10] (setting [21]); 59.3% in experiment [11] (setting [22]); 97% in experiment [12] (setting [23]). Also, the “inhibition effect on different cancer cell lines” value in the experiment with cancer cell lines is on record as “significant inhibition effect”.
